Experiment: DPPH assay of anti-oxidative (radical scavenging) activity
Type: biochemical
Conditions: 100 μM DPPH, 37° C., 30 minutes, absorbance 517 nm; FIG. 7
Method: To evaluate anti-oxidative activity, DPPH (1,1-diphenyl-2-picrylhydrazyl) assay was carried out. The samples used in this test (Doore Co., Ltd.) are as follows.
DPPH assay is a test in which an oxidant called DPPH is used to initiate oxidation and the ability of a sample to be tested in removing radicals is determined. When DPPH meets a material having anti-oxidative activity, it […] electrons to cause radical removing and undergoes a change in color from purple to yellow. Thus, it is possible to observe the oxidative activity of a material easily with the naked eye.
Each sample was introduced to a 96-well plate in an amount of 10 μl, and 100 μM of DPPH was introduced thereto in an amount of 190 μl. After carrying out reaction at 37° C. for 30 minutes, the absorbance was measured at 517 nm. Vitamin C was used as positive control (10, 5, 2.5 μg/ml).

sodium caseinate [ISAI-022]
anti-oxidative activity (DPPH radical scavenging): no radical scavenging activity

— patent publication US9802064B2, “Microcapsule comprising glycoprotein derived from plants” (AMOREPACIFIC CORPORATION, priority 2012, dated 2017)
